What is called MIC is the least concentration at which growth counts as inhibited. A higher MIC goes with weaker potency.

Converted amounts (≈) assume the structure as drawn. The source made the active and inactive calls. The calls are words filed in the database; no cut-off is given here.

Results on 3 compounds are retold here after ChEMBL document CHEMBL1151480, “Endiandric Acid Analogues from the Roots of Beilschmiedia erythrophloia” (2009).

One assay relates to P388. The experiment in a line: Growth inhibition of mouse P388 cells. Format: functional, cell-based.
Assay [1] has as its system Mycobacterium tuberculosis. Nature of the assay: Antitubercular activity against Mycobacterium tuberculosis H37Rv after 2 weeks by proportion method. The assay is classed as functional. The settings on record: 336 h.

On to `C=C1CC[C@H]2O[C@]2(C)[C@H](O)C[C@@H]2[C@@H]1CC2(C)C` [SUBEROSOL B], for which the “growth inhibition (GI)” value with P388 was “Active”. Moreover, the MIC in assay [1] was 28.9 µg/mL (≈ 122 µM). Regarding `COC(=O)[C@@H]1C=C[C@@H]2C[C@H]3[C@H](CCCCCCCc4ccccc4)[C@H]4C=C[C@@H]1[C@@H]2[C@H]43` [ERYTHROPHLOIN C], in assay [1], the MIC turned out to be 50 µg/mL (≈ 124 µM). Still for that read-out and setting: as for `CC[C@@H](CO)NCCN[C@@H](CC)CO` [ETHAMBUTOL], the figure is 6.25 µg/mL (≈ 30.6 µM).
